Measured values as given in ChEMBL document CHEMBL2016572, “Second-generation histone deacetylase 6 inhibitors enhance the immunosuppressive effects of Foxp3+ T-regulatory cells” (J Med Chem, 2012).
Calls of active or inactive are those of the source. No cut-off for these calls is given here.

Columns and labels:
Histone deacetylase 1 = Histone deacetylase 1 (Homo sapiens, UniProt Q13547); assay: Inhibition of human recombinant HDAC1 using RHKKAc peptide as substrate incubated for 5 to mins prior to substrate addition measured after 2 hrs
Histone deacetylase 1, sequence (Q13547 whole entry): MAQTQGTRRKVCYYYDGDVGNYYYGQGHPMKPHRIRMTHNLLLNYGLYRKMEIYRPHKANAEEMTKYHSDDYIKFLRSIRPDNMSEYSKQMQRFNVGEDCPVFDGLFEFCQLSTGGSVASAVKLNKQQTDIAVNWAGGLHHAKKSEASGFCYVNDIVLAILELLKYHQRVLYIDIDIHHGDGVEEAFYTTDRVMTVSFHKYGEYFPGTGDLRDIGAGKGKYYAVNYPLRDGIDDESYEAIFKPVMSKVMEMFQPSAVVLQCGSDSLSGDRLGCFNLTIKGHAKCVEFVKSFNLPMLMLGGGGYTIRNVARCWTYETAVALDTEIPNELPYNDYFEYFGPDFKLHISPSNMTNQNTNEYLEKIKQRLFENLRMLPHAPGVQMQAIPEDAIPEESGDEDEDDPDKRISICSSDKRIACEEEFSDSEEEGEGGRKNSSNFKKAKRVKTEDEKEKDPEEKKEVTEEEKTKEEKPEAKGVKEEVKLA

[1] = molecular target: T1, Protein deacetylase HDAC6 (Homo sapiens, UniProt Q9UBN7); assay: Inhibition of human recombinant HDAC6 using RHKKAc peptide as substrate incubated for 5 to mins prior to substrate addition measured after 2 hrs
T1 sequence (Q9UBN7 whole entry): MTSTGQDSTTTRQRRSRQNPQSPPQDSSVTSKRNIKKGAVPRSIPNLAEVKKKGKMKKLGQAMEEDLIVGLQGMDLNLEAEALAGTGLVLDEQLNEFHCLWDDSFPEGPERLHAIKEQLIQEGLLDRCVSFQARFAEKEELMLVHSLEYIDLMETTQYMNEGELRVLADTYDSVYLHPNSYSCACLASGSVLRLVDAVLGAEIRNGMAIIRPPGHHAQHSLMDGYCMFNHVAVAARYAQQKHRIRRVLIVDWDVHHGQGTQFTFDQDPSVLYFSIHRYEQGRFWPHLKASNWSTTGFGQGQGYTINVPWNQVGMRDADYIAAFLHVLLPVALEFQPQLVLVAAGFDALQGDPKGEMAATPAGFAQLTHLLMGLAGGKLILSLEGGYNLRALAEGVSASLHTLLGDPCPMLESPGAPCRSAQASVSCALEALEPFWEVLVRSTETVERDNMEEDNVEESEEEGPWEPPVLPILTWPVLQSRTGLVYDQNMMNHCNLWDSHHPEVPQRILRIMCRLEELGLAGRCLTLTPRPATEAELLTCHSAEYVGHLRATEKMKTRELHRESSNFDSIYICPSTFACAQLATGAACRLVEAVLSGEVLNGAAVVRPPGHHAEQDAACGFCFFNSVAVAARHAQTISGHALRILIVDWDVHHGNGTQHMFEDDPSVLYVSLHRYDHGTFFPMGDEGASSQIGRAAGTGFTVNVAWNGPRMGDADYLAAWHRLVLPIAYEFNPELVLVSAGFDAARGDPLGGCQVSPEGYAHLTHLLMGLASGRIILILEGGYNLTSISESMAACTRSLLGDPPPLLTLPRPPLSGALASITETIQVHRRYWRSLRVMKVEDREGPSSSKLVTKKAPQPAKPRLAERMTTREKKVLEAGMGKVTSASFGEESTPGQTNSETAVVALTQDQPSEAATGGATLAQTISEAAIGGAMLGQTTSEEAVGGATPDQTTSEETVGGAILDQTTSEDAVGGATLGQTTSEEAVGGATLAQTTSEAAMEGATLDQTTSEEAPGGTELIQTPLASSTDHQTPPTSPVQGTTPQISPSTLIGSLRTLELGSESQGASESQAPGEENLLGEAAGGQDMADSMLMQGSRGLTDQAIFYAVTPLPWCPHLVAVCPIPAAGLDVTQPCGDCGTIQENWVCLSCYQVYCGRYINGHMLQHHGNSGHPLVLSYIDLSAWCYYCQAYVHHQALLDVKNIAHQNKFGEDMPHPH

Homo sapiens = species on record: Homo sapiens; assay: Selectivity ratio of IC50 for human recombinant HDAC1 to IC50 for human recombinant HDAC6
[2] = Immunosuppressive activity against C57BL/6 mouse CFSE-labelled effector T cells assessed as Treg suppression of Teffector proliferation AUC at 0.5 uM after 3 to 4 days by flow cytometry relative to control; assay type: functional, T-cell
[3] = Immunosuppressive activity against C57BL/6 mouse CFSE-labelled effector T cells assessed as Treg suppression of Teffector proliferation AUC at […] after 3 to 4 days by flow cytometry relative to control; assay type: functional, T-cell
[4] = Immunosuppressive activity against C57BL/6 mouse CFSE-labelled effector T cells assessed as inhibition of T regulatory cells-mediated proliferation at Treg:Teff ratio of 1:1 at 1 uM after 3 to 4 days by flow cytometry (reference value: 42.2%); assay type: functional; settings: C57BL/6, T-cell
[5] = Immunosuppressive activity against C57BL/6 mouse CFSE-labelled effector T cells assessed as inhibition of T regulatory cells-mediated proliferation at Treg:Teff ratio of 1:2 at 1 uM after 3 to 4 days by flow cytometry (reference value: 64.8%); assay type: functional; settings: C57BL/6, T-cell
[6] = Immunosuppressive activity against C57BL/6 mouse CFSE-labelled effector T cells assessed as inhibition of T regulatory cell-mediated proliferation at Treg:Teff ratio of 1:4 at 1 uM after 3 to 4 days by flow cytometry (reference value: 74.2%); assay type: functional; settings: C57BL/6, T-cell
[7] = Immunosuppressive activity against C57BL/6 mouse CFSE-labelled effector T cells assessed as inhibition of T regulatory cells-mediated proliferation at Treg:Teff ratio of 1:16 at 1 uM after 3 to 4 days by flow cytometry (reference value: 86.9%); assay type: functional; settings: C57BL/6, T-cell
Mus musculus = assay: Immunosuppressive activity against HDAC6 deficient CD4+CD25- CFSE-labelled effector T cells xenografted in RAG-/- mouse assessed as inhibition of FoxP3+,CD4+CD25+ T regulatory cells-mediated proliferation at 1 mg/kg, ip administered qd for 7 days measured on day 8 by flow cytometry; assay type: functional, organism-based; parameters: dose 1 mg/kg; settings: T-cell
T-cell [8] = assay: Immunosuppressive activity against C57BL/6 mouse CFSE-labelled effector T cells assessed as inhibition of T regulatory cells-mediated proliferation at 0.25 uM after 3 to 4 days by flow cytometry relative to control; assay type: functional, cell-based
[9] = Immunosuppressive activity against C57BL/6 mouse CFSE-labelled effector T cells assessed as Treg suppression of Teffector proliferation AUC at 0.25 uM after 3 to 4 days by flow cytometry relative to control; assay type: functional, T-cell
T-cell [10] = assay: Immunosuppressive activity against C57BL/6 mouse CFSE-labelled effector T cells assessed as inhibition of T regulatory cells-mediated proliferation at 1 uM after 3 to 4 days by flow cytometry relative to control; assay type: functional, cell-based
[11] = Immunosuppressive activity against C57BL/6 mouse CFSE-labelled effector T cells assessed as Treg suppression of Teffector proliferation AUC at 1 uM after 3 to 4 days by flow cytometry relative to control; assay type: functional, T-cell
[12] = Immunosuppressive activity against C57BL/6 mouse CFSE-labelled effector T cells assessed as inhibition of T regulatory cell-mediated proliferation at Treg:Teff ratio of 1:4 at 0.5 uM after 3 to 4 days by flow cytometry (reference value: 74.2%); assay type: functional; settings: C57BL/6, T-cell
[13] = Immunosuppressive activity against C57BL/6 mouse CFSE-labelled effector T cells assessed as inhibition of T regulatory cell-mediated proliferation at Treg:Teff ratio of 1:8 at 0.5 uM after 3 to 4 days by flow cytometry (reference value: […]); assay type: functional; settings: C57BL/6, T-cell
[14] = Immunosuppressive activity against C57BL/6 mouse CFSE-labelled effector T cells assessed as inhibition of T regulatory cell-mediated proliferation at Treg:Teff ratio of 1:16 at 0.5 uM after 3 to 4 days by flow cytometry (reference value: 86.9%); assay type: functional; settings: C57BL/6, T-cell
T-cell [15] = assay: Immunosuppressive activity against C57BL/6 mouse CFSE-labelled effector T cells assessed as inhibition of T regulatory cell-mediated cell division at Treg:Teff ratio of 1:2 at 0.5 uM after 3 to 4 days by flow cytometry (reference value: 64.8%); assay type: functional; settings: C57BL/6, T-cell
T-cell [16] = assay: Immunosuppressive activity against C57BL/6 mouse CFSE-labelled effector T cells assessed as inhibition of T regulatory cell-mediated cell division at Treg:Teff ratio of 1:1 at 0.5 uM after 3 to 4 days by flow cytometry (reference value: 42.2%); assay type: functional; settings: C57BL/6, T-cell

| SMILES | IC50 (Histone deacetylase 1) [nM] | IC50 [1] [nM] | Ratio IC50 (Homo sapiens) | also measured |
| --- | --- | --- | --- | --- |
| COc1ccc(CN2CCc3c(c4ccccc4n3Cc3ccc(C(=O)NO)cc3)C2)cc1 | 4640 | 3.05 | 1520 | – |
| CN1CCc2c(c3cc(Cl)ccc3n2Cc2ccc(C(=O)NO)cc2)C1 | 1020 | 1.02 | 1000 | – |
| COc1cccc(CN2CCc3c(c4ccccc4n3Cc3ccc(C(=O)NO)cc3)C2)c1 | 5190 | 2.96 | 1750 | Ratio [2]: 1.9 |
| NC(=O)CN1CCc2c(c3ccccc3n2Cc2ccc(C(=O)NO)cc2)C1 | 3980 | 0.799 | 4980 | Ratio [3]: 1.69 |
| CN1CCc2c(c3ccccc3n2Cc2ccc(C(=O)NO)cc2)C1 [TUBASTATIN A] | – | – | – | inhibition at 1 µM [4]: 37.8%; inhibition at 1 µM [5]: 44.4%; inhibition at 1 µM [6]: 58.7%; inhibition at 1 µM [7]: 75.4% |
| O=C(NO)c1ccc(Cn2c3c(c4ccccc42)CCN(Cc2ccccc2)C3)cc1 | 4320 | 0.872 | 4950 | – |
| CC(C)N1CCc2c(c3ccccc3n2Cc2ccc(C(=O)NO)cc2)C1 | 15700 | 8.96 | 1750 | – |
| Cc1cccc2c3c(n(Cc4ccc(C(=O)NO)cc4)c12)CCN(C)C3 | 22100 | 34.7 | 636 | – |
| CN1CCc2c(c3cc(C(C)(C)C)ccc3n2Cc2ccc(C(=O)NO)cc2)C1 | 14100 | 22.5 | 626 | – |
| NC(=O)CCN1CCc2c(c3ccccc3n2Cc2ccc(C(=O)NO)cc2)C1 | 1610 | 0.459 | 3510 | – |
| O=C(NO)c1ccc(Cn2c3c(c4ccccc42)CN(Cc2ccccc2)CC3)cc1 | 10300 | 1.44 | 7150 | – |
| COc1ccc2c(c1)c1c(n2Cc2ccc(C(=O)NO)cc2)CCN(C)C1 | 1880 | 3.06 | 614 | – |
| CC(C)(C)OC(=O)N1CCc2c(c3ccccc3n2Cc2ccc(C(=O)NO)cc2)C1 | 8620 | 2.25 | 3830 | – |
| CN1CCc2c(c3cc(Br)ccc3n2Cc2ccc(C(=O)NO)cc2)C1 | 427 | 0.704 | 606 | inhibition (Mus musculus): Active; inhibition (T-cell [8]): Active; Ratio [9]: 1.87 |
| NC(=O)CCCN1CCc2c(c3ccccc3n2Cc2ccc(C(=O)NO)cc2)C1 | 7450 | 4.06 | 1830 | – |
| CN1CCc2c(n(Cc3ccc(C(=O)NO)cc3)c3ccccc23)C1 | – | 1.4 | 3700 | inhibition (T-cell [10]): Active; Ratio [11]: 1.63 |
| O=C(NO)c1ccc(Cn2c3c(c4ccccc42)CNCC3)cc1 | 16400 | 6.56 | 2500 | Ratio [3]: 1.76 |
| CCN1CCc2c(c3ccccc3n2Cc2ccc(C(=O)NO)cc2)C1 | 10200 | 2.99 | 3410 | – |
| C=CCN1CCc2c(c3ccccc3n2Cc2ccc(C(=O)NO)cc2)C1 | 5820 | 0.972 | 5990 | Ratio [2]: 1.65 |
| Cc1ccc2c(c1)c1c(n2Cc2ccc(C(=O)NO)cc2)CCN(C)C1 | 2070 | 4.9 | 422 | – |
| Cc1cc(C)c2c3c(n(Cc4ccc(C(=O)NO)cc4)c2c1)CCN(C)C3 | 10300 | 38.4 | 268 | – |
| Cc1ccc2c3c(n(Cc4ccc(C(=O)NO)cc4)c2c1)CCN(C)C3 | 4050 | 11.5 | 352 | – |
| O=C(NO)c1ccc(Cn2c3c(c4ccccc42)CCNC3)cc1 | 9700 | 2.49 | 3900 | – |
| O=C(NO)c1ccc(Cn2c3c(c4ccccc42)CN(Cc2ccncc2)CC3)cc1 | 2740 | 0.582 | 4710 | inhibition (Mus musculus): Active; inhibition at 0.5 µM [12]: 62.3%; inhibition at 0.5 µM [13]: 69.7%; Ratio [2]: 2.13; inhibition at 0.5 µM [14]: 72.8%; inhibition at 0.5 µM (T-cell [15]): 51.6%; inhibition at 0.5 µM (T-cell [16]): 37.8% |
